This passage reports melting point results from patent US9248199B2, “1:1 adducts of sickle hemoglobin” (Global Blood Therapeutics, Inc., priority 2014, dated 2016).

Broadly, the melting point is the temperature of the solid-liquid transition. The compound `CCn1nccc1N(C(=O)COc1cccc(O)c1C=O)C(C)C` [compound 22, N-(1-ethyl-1H-pyrazol-5-yl)-2-(2-formyl-3-hydroxyphenoxy)-N-isopropylacetamide] yielded a melting point of 179 to 182 °C.
